For four molecules, IC50 and Ki results are on record in ChEMBL document CHEMBL1909046, “DrugMatrix in vitro pharmacology data”.

The target in test [1] is T1, Calcitonin receptor (Homo sapiens, UniProt P30988). Note: in other assays of this panel Not Active means under 50% inhibition at 10 µM.
T1 sequence (P30988 whole entry): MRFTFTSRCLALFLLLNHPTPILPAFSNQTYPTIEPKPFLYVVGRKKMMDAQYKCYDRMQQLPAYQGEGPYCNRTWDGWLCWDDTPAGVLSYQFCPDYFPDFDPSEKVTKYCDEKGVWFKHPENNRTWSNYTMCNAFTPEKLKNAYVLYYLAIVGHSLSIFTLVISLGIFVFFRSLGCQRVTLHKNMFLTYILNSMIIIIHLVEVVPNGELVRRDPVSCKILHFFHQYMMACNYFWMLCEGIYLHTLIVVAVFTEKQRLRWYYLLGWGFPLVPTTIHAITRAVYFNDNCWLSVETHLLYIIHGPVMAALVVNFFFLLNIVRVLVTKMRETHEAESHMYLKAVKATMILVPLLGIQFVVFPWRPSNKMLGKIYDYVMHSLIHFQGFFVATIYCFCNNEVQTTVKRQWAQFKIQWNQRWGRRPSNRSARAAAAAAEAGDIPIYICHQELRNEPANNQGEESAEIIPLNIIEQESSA
It is filed as cell membranes, Membrane. Conditions: t47d.

Test [2] concerns the target 5-hydroxytryptamine receptor 6 (Homo sapiens, UniProt P50406). In kind it is cell membranes, HeLa, Membrane. As to conditions: hela. Note: in other assays of this panel Not Active means under 50% inhibition at 10 µM.
Test [3] can be described thus: DRUGMATRIX: Sigma2 radioligand binding (ligand: [3H] Ifenprodil). As to conditions: Not Active = under 50% inhibition at 10 µM. It is filed as cell membranes, Rattus norvegicus, Wistar, Brain, Membrane.
Test [4] deals with Substance-P receptor (Homo sapiens, UniProt P25103). In kind it is cell membranes, Membrane. As to conditions: cho.
Test [5] addresses Prostaglandin G/H synthase 1 (Homo sapiens, UniProt P23219). Description: biochemical. Conditions: platelet. In kind it is tissue-based, Platelet.
Test [6] concerns the target T2, D(4) dopamine receptor (Homo sapiens, UniProt P21917).
T2 sequence (P21917 whole entry): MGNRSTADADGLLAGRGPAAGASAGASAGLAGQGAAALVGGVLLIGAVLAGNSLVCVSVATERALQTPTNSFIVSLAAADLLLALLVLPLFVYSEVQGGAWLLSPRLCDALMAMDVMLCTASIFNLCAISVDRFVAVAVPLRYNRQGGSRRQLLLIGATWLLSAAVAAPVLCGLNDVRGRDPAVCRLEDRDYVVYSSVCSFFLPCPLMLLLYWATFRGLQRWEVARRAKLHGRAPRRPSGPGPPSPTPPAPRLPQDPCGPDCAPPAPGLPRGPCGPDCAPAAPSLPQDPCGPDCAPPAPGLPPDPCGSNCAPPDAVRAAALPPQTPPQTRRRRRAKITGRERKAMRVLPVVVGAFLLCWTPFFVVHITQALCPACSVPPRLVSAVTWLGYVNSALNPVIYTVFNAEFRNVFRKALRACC
Description: DRUGMATRIX: Dopamine D4.2 radioligand binding (ligand: [3H] Spiperone). It is filed as cell membranes, Membrane. Conditions: cho-k1; Not Active = under 50% inhibition at 10 µM.

Test [7] has as its target T3, Polyunsaturated fatty acid lipoxygenase ALOX15 (Oryctolagus cuniculus, UniProt P12530).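 Note: inhibition of 15-lipoxygenase enzyme activity measured with linoleic acid as the substrate; in other assays of this panel Not Active means under 50% inhibition at 10 µM.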
T3 sequence (P12530 whole entry): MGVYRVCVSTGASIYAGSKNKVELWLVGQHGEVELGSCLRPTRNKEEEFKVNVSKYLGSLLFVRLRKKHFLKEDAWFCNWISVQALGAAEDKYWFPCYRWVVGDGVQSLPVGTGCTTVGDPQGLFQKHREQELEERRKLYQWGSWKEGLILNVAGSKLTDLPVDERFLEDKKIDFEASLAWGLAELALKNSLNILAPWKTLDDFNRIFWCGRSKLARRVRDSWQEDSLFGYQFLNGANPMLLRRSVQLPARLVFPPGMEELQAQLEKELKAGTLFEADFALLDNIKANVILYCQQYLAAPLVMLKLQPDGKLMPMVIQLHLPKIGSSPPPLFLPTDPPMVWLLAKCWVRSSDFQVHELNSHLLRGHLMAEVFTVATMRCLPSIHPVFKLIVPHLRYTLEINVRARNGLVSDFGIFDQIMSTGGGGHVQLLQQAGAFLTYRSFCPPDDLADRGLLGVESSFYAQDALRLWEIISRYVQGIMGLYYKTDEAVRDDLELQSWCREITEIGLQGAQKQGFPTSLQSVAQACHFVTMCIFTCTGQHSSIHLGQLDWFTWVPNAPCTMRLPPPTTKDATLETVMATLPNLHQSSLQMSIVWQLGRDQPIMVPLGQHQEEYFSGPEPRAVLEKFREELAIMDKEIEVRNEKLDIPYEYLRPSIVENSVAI
Description: biochemical. In kind it is tissue-based, Reticulocytes.

The target of test [8] is Delta-type opioid receptor (Homo sapiens, UniProt P41143). It is filed as cell membranes, HEK293, Membrane. As to conditions: hek293. Note: in other assays of this panel Not Active means under 50% inhibition at 10 µM.
For test [9], the target named is Mitogen-activated protein kinase 3 (Homo sapiens, UniProt P27361). Description: DRUGMATRIX: Protein Serine/Threonine Kinase, ERK1 enzyme inhibition (substrate: Myelin Basic Protein). Set-up: species or system Escherichia coli. Conditions: Not Active = under 50% inhibition at 10 µM.
The target in test [10] is Acetylcholinesterase (Homo sapiens, UniProt P22303). As to the kind of experiment: DRUGMATRIX: Acetylcholinesterase enzyme inhibition (substrate: acetylthiocholine). It is filed as cell-based, HEK293. Conditions: hek293; Not Active = under 50% inhibition at 10 µM.
Sequence of Acetylcholinesterase (P22303 whole entry): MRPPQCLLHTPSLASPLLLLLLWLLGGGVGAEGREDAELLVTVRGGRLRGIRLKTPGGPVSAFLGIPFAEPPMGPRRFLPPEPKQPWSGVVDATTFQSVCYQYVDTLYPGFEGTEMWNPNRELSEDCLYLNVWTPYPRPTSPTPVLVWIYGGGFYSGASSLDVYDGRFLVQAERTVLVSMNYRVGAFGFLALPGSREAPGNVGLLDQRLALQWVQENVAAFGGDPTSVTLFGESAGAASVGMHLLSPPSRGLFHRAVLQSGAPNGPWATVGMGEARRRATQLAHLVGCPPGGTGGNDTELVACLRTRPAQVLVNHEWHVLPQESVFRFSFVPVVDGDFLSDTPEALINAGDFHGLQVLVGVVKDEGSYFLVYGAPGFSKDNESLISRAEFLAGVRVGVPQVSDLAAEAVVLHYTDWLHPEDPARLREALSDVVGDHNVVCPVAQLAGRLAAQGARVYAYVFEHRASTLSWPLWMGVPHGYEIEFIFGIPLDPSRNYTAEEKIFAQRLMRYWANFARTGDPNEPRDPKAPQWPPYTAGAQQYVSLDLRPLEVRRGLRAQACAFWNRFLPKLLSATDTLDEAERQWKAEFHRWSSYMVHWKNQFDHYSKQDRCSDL

Sequence of Delta-type opioid receptor (P41143 whole entry): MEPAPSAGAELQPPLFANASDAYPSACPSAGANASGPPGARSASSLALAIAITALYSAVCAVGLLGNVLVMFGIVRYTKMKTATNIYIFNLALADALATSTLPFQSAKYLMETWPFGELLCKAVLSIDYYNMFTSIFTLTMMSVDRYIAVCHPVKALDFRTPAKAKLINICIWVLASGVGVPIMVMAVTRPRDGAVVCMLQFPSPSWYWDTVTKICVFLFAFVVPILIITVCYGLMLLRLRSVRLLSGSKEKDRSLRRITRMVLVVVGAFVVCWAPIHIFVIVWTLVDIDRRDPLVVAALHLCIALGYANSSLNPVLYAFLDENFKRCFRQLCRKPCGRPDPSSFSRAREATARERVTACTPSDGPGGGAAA
Sequence of 5-hydroxytryptamine receptor 6 (P50406 whole entry): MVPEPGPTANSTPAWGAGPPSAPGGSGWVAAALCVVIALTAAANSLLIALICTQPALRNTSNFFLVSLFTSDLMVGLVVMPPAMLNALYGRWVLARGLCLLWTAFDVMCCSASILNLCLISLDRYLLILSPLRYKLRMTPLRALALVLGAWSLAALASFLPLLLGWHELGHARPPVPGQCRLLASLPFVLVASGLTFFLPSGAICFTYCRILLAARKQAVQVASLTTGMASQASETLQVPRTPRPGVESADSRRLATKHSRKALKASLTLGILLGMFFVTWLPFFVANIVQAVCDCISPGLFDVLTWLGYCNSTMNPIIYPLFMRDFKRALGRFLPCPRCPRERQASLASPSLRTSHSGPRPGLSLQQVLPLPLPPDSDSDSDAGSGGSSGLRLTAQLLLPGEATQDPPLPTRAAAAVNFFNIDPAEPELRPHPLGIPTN
Sequence of Substance-P receptor (P25103 whole entry): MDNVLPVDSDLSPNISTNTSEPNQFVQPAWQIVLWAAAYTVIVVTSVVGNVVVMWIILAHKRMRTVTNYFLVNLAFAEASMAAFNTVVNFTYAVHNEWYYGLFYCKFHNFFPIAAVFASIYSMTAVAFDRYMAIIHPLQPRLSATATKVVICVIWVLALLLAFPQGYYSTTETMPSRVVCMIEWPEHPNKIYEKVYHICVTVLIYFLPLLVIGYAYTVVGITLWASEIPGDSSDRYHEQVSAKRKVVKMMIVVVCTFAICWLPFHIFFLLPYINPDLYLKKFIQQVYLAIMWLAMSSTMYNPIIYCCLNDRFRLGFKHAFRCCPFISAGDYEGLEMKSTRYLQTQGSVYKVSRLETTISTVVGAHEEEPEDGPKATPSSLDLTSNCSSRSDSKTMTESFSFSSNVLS
Sequence of Mitogen-activated protein kinase 3 (P27361 whole entry): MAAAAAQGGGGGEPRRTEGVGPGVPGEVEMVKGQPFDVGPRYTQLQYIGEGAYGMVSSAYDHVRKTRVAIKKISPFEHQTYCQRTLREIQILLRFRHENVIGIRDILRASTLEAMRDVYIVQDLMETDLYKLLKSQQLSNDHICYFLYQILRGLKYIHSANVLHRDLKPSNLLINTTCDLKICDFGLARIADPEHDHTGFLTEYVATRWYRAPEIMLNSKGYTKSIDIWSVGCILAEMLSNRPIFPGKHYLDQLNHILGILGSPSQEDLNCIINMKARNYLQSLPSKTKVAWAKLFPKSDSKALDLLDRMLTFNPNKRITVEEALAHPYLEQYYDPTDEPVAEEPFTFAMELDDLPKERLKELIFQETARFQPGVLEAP
Sequence of Prostaglandin G/H synthase 1 (P23219 whole entry): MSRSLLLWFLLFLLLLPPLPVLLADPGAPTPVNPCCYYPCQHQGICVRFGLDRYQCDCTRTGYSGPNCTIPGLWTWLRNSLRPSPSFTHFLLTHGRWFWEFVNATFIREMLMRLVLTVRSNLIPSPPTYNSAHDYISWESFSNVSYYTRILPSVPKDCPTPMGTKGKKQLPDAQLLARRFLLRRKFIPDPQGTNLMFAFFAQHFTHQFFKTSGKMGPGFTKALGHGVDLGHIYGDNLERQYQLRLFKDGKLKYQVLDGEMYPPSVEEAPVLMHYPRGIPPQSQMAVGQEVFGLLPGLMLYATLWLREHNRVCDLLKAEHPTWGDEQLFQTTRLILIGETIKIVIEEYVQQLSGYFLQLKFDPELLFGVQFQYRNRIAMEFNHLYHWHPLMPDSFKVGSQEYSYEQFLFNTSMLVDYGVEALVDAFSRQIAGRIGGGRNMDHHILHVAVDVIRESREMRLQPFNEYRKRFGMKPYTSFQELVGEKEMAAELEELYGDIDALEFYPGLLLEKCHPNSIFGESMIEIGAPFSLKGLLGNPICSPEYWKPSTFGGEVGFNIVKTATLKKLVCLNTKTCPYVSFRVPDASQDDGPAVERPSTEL

As to `CC[C@]1(O)C[C@@H]2CN(CCc3c([nH]c4ccccc34)[C@@](C(=O)OC)(c3cc4c(cc3OC)N(C)[C@H]3[C@@](O)(C(=O)OC)[C@H](OC(C)=O)[C@]5(CC)C=CCN6CC[C@]43[C@@H]65)C2)C1` [VINBLASTINE], the IC50 result in test [1], in test [2], in test [3], in test [4], in test [5] and in [6] was “Not Active” each time. The IC50 – broadly, the concentration needed to halve the response being measured – in test [7] (read-out: IC50) is 5.04 µM; in test [8] it was “Not Active”; in test [9], “Not Active”; in [10] it was “Not Active”. Besides, the Ki entry in [3] is given as “Not Active”.
In the case of `CC(=O)CC(c1ccccc1)c1c(O)c2ccccc2oc1=O` (centres undefined) [WARFARIN], the IC50 result in test [1], in test [2], in [3], in [4], in test [5] and in test [6] was “Not Active” throughout. For the same molecule, the IC50 result in test [7] (reticulocytes), in [8], in test [9] and in test [10] was “Not Active” each time. In [3], the Ki entry is listed as “Not Active”.
On to `C[C@@H](N)[C@H]1CC[C@H](C(=O)Nc2ccncc2)CC1` [Y-27632], for which the IC50 result in [1], in [2], in test [3], in [4], in test [5] and in test [6] was “Not Active” throughout. Further, the IC50 result in test [7] (reticulocytes), in test [8], in test [9] and in [10] was “Not Active” throughout. Further, in [3], the Ki result was “Not Active”.
For the molecule `[Cl-].[Cl-].[Zn+2]` [ZINC CHLORIDE], the IC50 entry in [1], in [2], in test [3], in [4], in test [5] and in [6] was “Not Active” in each case. Also, the IC50 entry in test [7] (reticulocytes), in test [8], in test [9] and in test [10] was “Not Active” each time. The Ki result in test [3] is reported as “Not Active”.
